In this assay the test system is E. coli GC 2883 (OXA-10 + PSE-2). Nature of the assay: Antimicrobial susceptibility testing, microbroth dilution (NCCLS), piperacillin combined with β-lactamase inhibitor. In kind it is cell-based. To be noted: Escherichia coli; piperacillin as control, without inhibitor.

As to `CCN1CCN(C(=O)N[C@@H](C(=O)N[C@@H]2C(=O)N3[C@@H]2SC(C)(C)[C@@H]3C(=O)O)c2ccccc2)C(=O)C1=O` [piperacillin], the MIC50 (in general, the lowest concentration that inhibits either 50% of growth or 50% of the strains tested, depending on the study) was greater than 64 µg/mL.

The values above are taken from patent publication US20060276445A1, “Bicyclic 6-alkylidene-penems as class-D beta-lactamases inhibitors” (priority 2005, published 2006).
